From patent US20080071116A1, “Modulators of Lysophosphatidic Acid (Lpa) Signaling and the Use Thereof” (THE BOARD OF REGENTS OF THE UNIVERSITY OF TEXAS SYSTEM, priority 2004, published 2008)
“Also recorded” adds a separate entry of the source.

Assays:
[1] = tested on: vasodilator-stimulated protein (VASP); test: VASP phosphorylation in PC-3 cells; type: cell-based, human
Protocol: (§1) The cells were then lysed in SDA sample buffer or ice-cold X-100 lysis buffer (1% Triton X-100, 50 mM HEPES [pH7.4], 150 mM NaCl, 1.5 mM MgCl2, 1 mM EGTA, 10% glycerol, 100 mM NaF, 10 mM Na pyrophosphate, and 1 mM aprotinin). Total cellular protein was resolved by SDS/PAGE, transferred to immobilon [poly (vinylidene difluoride)], and immunoblotted with antibodies following the protocols provided by manufactures. Immunocomplexes were visualized with an enhanced chemiluminescence detection kit (Amersham Pharmacia) using horseradish peroxidase-conjugated secondary antibodies (Bio-Rad).
To determine the mechanisms regulating LPA-induced cell migration, actin filament binding proteins that link receptor signaling to lamellipodia formation were evaluated.

[2] = tested on: PC-3 cells; test: lamellipodia formation in PC-3 cells; type: cell-based, human; settings: 30 μM; for effect on spontaneously activated lamellipodia: PC-3, serum-free, FIGS. 38-40; for inhibition of 18:1 LPA-induced lamellipodia formation: PC-3, FIGS. 42-44
[3] = tested on: PC-3 cells; test: cell growth (cell viability) in PC-3 cells; type: cell-based, human; settings: for inhibition of cell growth (cell viability): PC-3
[4] = tested on: DU145 cells; test: calcium mobilization assay in androgen insensitive prostate cancer DU145 cells; type: cell-based, human
[5] = tested on: DU145 cells; test: cell migration of DU145 cells; type: cell-based, human
[6] = tested on: HT29 cells; test: calcium mobilization assay in colon cancer HT29 cells; type: cell-based
Protocol: (§2) The procedures for these calcium mobilization assays are as followed: OVCAR3 cells and PC-3 cells were cultured in RPMI 1640 medium with 10% FBS (fetal bovine serum). HT29 cells were cultured in DMEM (high glucose) medium with 10% FBS. All cells were cultured at about 37° C. in a humidified atmosphere with 5% CO2. After starvation in serum-free medium for about 12-24 hours, cells were harvested and loaded with about 1 μM of Indo-1 AM in serum-free medium for about 45 min at 37° C. Cells were washed in PBS and resuspended at 2×10^6 cells/ml in a [Ca^2+]i assay buffer (Sodium chloride, NaCl, about 140 mM, potassium chloride, KCl, about 2 mM, magnesium chloride, MgCl2, about 1 mM, calcium chloride, CaCl2, about 2 mM, in about 25 mM HEPES buffer at pH 7.4 with about 10 mM of glucose). Cytoplasmic [Ca^2+]i was determined at an excitation wavelength of about 331 nm and an emission wavelength of 410 nm using a fluorescence spectrophotometer (Hitachi, F-4000). Approximately 3×10^6 cells were used for [Ca^2+]l determination in a stirred quartz cuvette kept at about 37° C. OMPT or 18:1 LPA was dissolved in about 0.1% BSA/PBS solution and applied immediately to the cells. To test other LPA derivatives of the invention, cells were exposed to the derivatives for about 3 minutes or for a period of various times in time course related experiments before a LPA agonist, such as 18:1 LPA, OMPT, or other LPAs was applied into the cuvette.
(§3) The concentration of calcium mobilization giving the half-maximal response (EC50) was obtained from the concentration-response curve fitted to a sigmoidal logistic equation, with the maximal calcium response set to 100% using the GraphPad Prism. Maximal response value is expressed as mean +/−s.e.m. EC50 value is expressed with 95% confidence.

[7] = tested on: ERK1/2; test: ERK1/2 (p42/p44-MAPK) phosphorylation immunoblot in prostate cancer cells; type: cell-based, human
Protocol: as §1

[8] = tested on: PC-3 cells; test: membrane ruffling and cell migration in PC-3 cells; type: cell-based, human
[9] = tested on: OVCAR3 cells; test: calcium mobilization assay in ovarian cancer OVCAR3 cells; type: cell-based, human; settings: OVCAR3
Protocol: as §2, §3

[10] = tested on: PC-3 cells; test: calcium mobilization assay in androgen insensitive prostate cancer PC-3 cells; type: cell-based, human
Protocol: as §2, §3

[11] = tested on: DU145 cells; test: cell growth (cell viability) in DU145 cells; type: cell-based, human
[12] = target: T1, LPA2 receptor (Homo sapiens, UniProt Q9HBW0); test: calcium mobilization in Sf9 insect cells expressing LPA2; type: cell-based; design: expressed in transfected cells; host or cells: Sf9 insect cells; settings: Sf9 cells expressing LPA2; read-out: EC50 of increase in intracellular calcium concentration
T1 sequence (Q9HBW0 whole entry): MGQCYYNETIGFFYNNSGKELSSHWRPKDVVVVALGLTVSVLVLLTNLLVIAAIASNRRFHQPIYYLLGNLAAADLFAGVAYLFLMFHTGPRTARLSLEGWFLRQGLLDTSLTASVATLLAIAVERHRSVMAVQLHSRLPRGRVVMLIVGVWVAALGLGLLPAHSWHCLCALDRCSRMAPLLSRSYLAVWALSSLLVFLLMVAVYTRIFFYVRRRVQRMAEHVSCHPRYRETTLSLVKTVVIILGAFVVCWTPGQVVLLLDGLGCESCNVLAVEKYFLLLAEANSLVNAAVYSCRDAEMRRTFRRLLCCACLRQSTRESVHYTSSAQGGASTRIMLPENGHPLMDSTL

[13] = tested on: PKA; test: PKA activation in PC-3 cells; type: cell-based, human
[14] = tested on: PC-3 cells; test: cellular proliferation and growth factor withdrawal-induced apoptosis; type: cell-based, human
[15] = target: T2, LPA1 receptor (Homo sapiens, UniProt Q92633); test: calcium mobilization in Sf9 insect cells expressing LPA1; type: cell-based; settings: Sf9 cells expressing LPA1
T2 sequence (Q92633 whole entry): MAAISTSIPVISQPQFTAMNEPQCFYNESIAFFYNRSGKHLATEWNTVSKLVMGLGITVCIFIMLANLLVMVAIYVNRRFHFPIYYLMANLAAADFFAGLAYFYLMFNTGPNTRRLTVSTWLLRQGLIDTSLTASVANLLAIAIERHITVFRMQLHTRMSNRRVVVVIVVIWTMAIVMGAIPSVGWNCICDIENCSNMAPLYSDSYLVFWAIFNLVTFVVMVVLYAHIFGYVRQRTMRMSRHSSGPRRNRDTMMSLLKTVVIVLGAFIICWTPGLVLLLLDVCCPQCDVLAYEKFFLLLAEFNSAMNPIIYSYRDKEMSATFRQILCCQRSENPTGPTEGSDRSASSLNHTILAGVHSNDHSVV

[16] = tested on: AKT; test: AKT phosphorylation immunoblot in prostate cancer cells; type: cell-based, human; settings: PC-3 and DU145 cells
Protocol: as §1

[17] = tested on: HT29 cells; test: lamellipodia formation in colon cancer HT29 cells; type: cell-based; settings: HT29, FIG. 26
[18] = tested on: p38-MAPK; test: p38-MAPK activation, phosphospecific antibodies; type: cell-based, human; settings: PC-3 and DU145 cells
Protocol: as §1

[19] = target: T3, LPA3 receptor (Homo sapiens, UniProt Q9UBY5); test: calcium mobilization in Sf9 insect cells expressing LPA3; type: cell-based; design: expressed in transfected cells; host or cells: Sf9 insect cells
T3 sequence (Q9UBY5 1-353): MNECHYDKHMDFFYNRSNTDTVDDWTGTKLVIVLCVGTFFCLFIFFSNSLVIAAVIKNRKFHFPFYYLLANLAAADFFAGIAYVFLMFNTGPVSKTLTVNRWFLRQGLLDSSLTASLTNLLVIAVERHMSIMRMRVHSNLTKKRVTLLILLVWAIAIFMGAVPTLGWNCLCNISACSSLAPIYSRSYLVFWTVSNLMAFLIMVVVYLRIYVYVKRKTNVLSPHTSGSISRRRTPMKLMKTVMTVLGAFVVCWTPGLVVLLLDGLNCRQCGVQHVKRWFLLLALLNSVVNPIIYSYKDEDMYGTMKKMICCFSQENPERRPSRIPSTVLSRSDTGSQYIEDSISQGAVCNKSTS

[20] = tested on: LNCaP cells; test: calcium mobilization in androgen sensitive prostate cancer LNCaP cells; type: cell-based
[21] = target: T1, LPA2 receptor; test: HA-Erk1 phosphorylation in HEK 293 T cells transfected with LPA2; type: cell-based; design: expressed in transfected cells; settings: LPA2 transfected HEK 293 T; 0.01, 0.1, or 1 μM
Source text: (§4) We have also tested kinase activation by the LPA3 receptor subtype using OMPT as a tool. We determined whether activation of the LPA3 receptor by OMPT can be linked to ERK activation (related to MAP kinase signaling pathway) in mammalian cells, HEK 293 T cells, by co-transfecting hemagglutinin (HA)-tagged Erk1 (HA-Erk1) with either a control vector or an expression vector having LPA1, LPA2, or LPA3. […] There is no phosphorylation of HA-Erk1 at lower concentration of LPA or OMPT in the absence of LPA receptors. […] Thus, the data confirmed that OMPT, an LPA derivative, is a selective agonist for LPA3 receptor subtype, capable of inducing MAPK activation.

[22] = target: T2, LPA1 receptor; test: HA-Erk1 phosphorylation in HEK 293 T cells transfected with LPA1; type: cell-based; design: FLAG; expressed in transfected cells; host or cells: HEK 293 T cells; settings: LPA1 transfected HEK 293 T; 0.01, 0.1, or 1 μM
Source text: as §4

[23] = tested on: interleukin-8 (IL-8); test: IL-8 transcription and secretion; type: cell-based, human; settings: PC-3 cells
[24] = target: T3, LPA3 receptor; test: HA-Erk1 phosphorylation in HEK 293 T cells transfected with LPA3; type: cell-based; design: expressed in transfected cells; settings: LPA3 transfected HEK 293 T; 0.01, 0.1, or 1 μM
Source text: as §4

[25] = tested on: Jurkat T cells; settings: human Jurkat T cells; Xu et al. 1995; cited from earlier work
[26] = in the presence of 10 μM of 18:1 LPA, FIGS. 45-47

With EGF: epidermal growth factor the “induction of VASP phosphorylation at Ser157 PKA site” value [1] was “Neither OMPT nor EGF increased phosphorylation of VASP”.
For `CCCCCCCCCCCCCC(=O)OC[C@@H](O)COP(=O)(O)OCC(O)CO` (mixture of isomers) [14:0 LPG, 1-myristoyl-2-hydroxy-sn-glycero-3-[phospho-rac-(1-glycerol)]], the “effect on spontaneously activated lamellipodia” value [2] was “negligible effect”, the “inhibition of 18:1 LPA-induced lamellipodia formation” value [2] was “no inhibition” and the “inhibition of cell growth (cell viability)” value (“inhibition of cell growth” for short) [3, 26] was “inhibition of cell growth (cell viability) at high concentrations”. The “inhibition of 14:0 LPA-induced calcium mobilization” value [4] was “inhibited calcium mobilization; also recorded: effective inhibitor/antagonist”.
With “D-3-deoxy-phosphophatidyl-myo-inositol ether lipid [DPIEL]” the “inhibition of LPA-induced cell migration” value [5] was “inhibits”, the “inhibition of VASP phosphorylation” value [1] was “inhibits phosphorylation of vasodilator stimulated protein (VASP)” and the “inhibition of (18:1) LPA-induced calcium mobilization” value ([6]; HT29 cells (express only LPA2), FIG. 6) was “does not inhibit calcium mobilization”. For the same compound, the “inhibition of EGF-induced phosphorylation of ERK1/2” value ([7]; LNCaP cells, FIG. 8B) was “fails to reduce EGF-induced phosphorylation of ERK1/2”, the “inhibition of ERK1/2 phosphorylation activated by 18:1 LPA and 14:0 LPA” value ([7]; PC-3 cells, DPIEL about 30 minutes, FIG. 8A) was “inhibits phosphorylation of the extracellular signal-regulating kinase (ERK1/2)” and the “inhibition of LPA-induced cell migration” value [8] was “inhibits”. For the same compound, the “maximum calcium response to OMPT” value ([9]; DPIEL about 10 μM exposed group (control about 123.5+/−16.4 nM)) was “about 136.1+/−16.6 nM”, the “suppression of the maximum response to OMPT” value ([9]; about 20 μM DPIEL) was “about 36%” and the “suppression of maximum calcium mobilization induced by 18:1 LPA” value ([10]; FIG. 7) was “about 56%”.
For `CCCCCCCC/C=C\CCCCCCCC(=O)OC[C@@H](O)COP(=O)(O)OCC(O)CO` (mixture of isomers) [18:1 LPG, 1-oleoyl-2-hydroxy-sn-glycero-3-[phospho-rac-(1-glycerol)]], the “effect on spontaneously activated lamellipodia” value [2] was “inhibit spontaneously activated lamellipodia”, the “inhibition of 18:1 LPA-induced lamellipodia formation” value [2] was “inhibition of 18:1 LPA-induced LPA2 receptor mediated lamellipodia formation” and the “inhibition of cell growth” value [3, 26] was “inhibition of cell growth (cell viability) at high concentrations”. The “inhibition of cell growth” value ([3]; without LPA, FIGS. 46-47) was “inhibition of cell growth (cell viability) at high concentrations”, the “reduction of cell viability / cell growth” value ([3]; PC-3 cells) was “reduced cell viability” and the “inhibition of (18:1) LPA-induced calcium mobilization” value ([6]; HT29 cells (only express LPA2), FIGS. 21-22) was “effective inhibitors/antagonists”. The “reduction of cell viability / cell growth” value [11] was “reduced cell viability”, the “inhibition of OMPT-induced calcium mobilization” value ([10]; FIGS. 19-20) was “effective inhibitor/antagonist” and the “antagonism of 18:1 LPA-induced calcium mobilization” value ([4]; 10 and 30 μM in FIGS. 15-18) was “completely antagonized”. The “antagonism of 18:1 LPA-induced calcium mobilization” value ([4]; 10 and 30 μM in FIGS. 15-18, listed as 18:1-acyl-LPG) was “shifted to the right”.
In the case of `O=S(=O)(NCCNC/C=C/c1ccc(Br)cc1)c1cccc2cnccc12` [H-89], the “inhibition of membrane ruffling and cell migration induced by 18:1 LPA and 14:0 LPA” value [8] is reported as “completely inhibited membrane ruffling and cell migration”.
With `CCCCCCCCCCCCCC(=O)OC[C@@H](O)COP(=O)(O)O` [14:0 LPA, reference compound] the EC50 [12] was 0.1 nM, the “activation of PKA” value [13] was “efficiently activate PKA” and the “cellular proliferation and prevention of growth factor withdrawal-induced apoptosis” value [14] was “does not increase cellular proliferation”. The “elevation of intracellular calcium” value [15] was “no elevated intracellular calcium concentration is observed”, the “induction of VASP phosphorylation at Ser157 PKA site” value [1] was “induced phosphorylation” and the “activation of AKT” value [16] was “only marginal effects”. The activation of lamellipodia [17] was “strong activator of lamellipodia”, the “activation of p42/p44-MAPK” value ([7]; PC-3 and DU145 cells) was “efficiently activates p42/p44-MAPK” and the “activation of p38-MAPK” value [18] was “only marginal effects”. The calcium mobilization [19] was “no elevated intracellular calcium concentration is observed”, the “stimulation of membrane ruffling and cell migration” value [8] was “stimulate membrane ruffling and cell migration” and the EC50 [10] was roughly 98 nM.
In the case of “lysophosphatidic acid [LPA, reference compound]”, the calcium mobilization [20] is reported as “does not induce the increase of intracellular calcium concentration”, the HA-Erk1 phosphorylation [21] is reported as “stimulates phosphorylation of HA-Erk1 in a dose-dependent manner” and the HA-Erk1 phosphorylation [22] is reported as “stimulates phosphorylation of HA-Erk1 in a dose-dependent manner”. The “IL-8 transcription and secretion” value [23] was “increases interleukin-8 (IL-8) transcription and stimulates IL-8 secretion” and the HA-Erk1 phosphorylation [24] was “stimulates phosphorylation of HA-Erk1 in a dose-dependent manner”.
For lysophosphatidyl glycerol [LPG], the “inhibition of LPA signaling” value [25] is listed as “inhibitor of LPA signaling”.
